Legend:
xanthine oxidase [1] = molecular target: T1, xanthine oxidase (Homo sapiens, UniProt P47989); assay: Inhibition mode determination by Lineweaver-Burk plot; type: biochemical; settings: 0.3, 0.4 or 0.6 mM substrate
Method: 798 μL of 0.1 unit xanthine oxidase in 200 mM sodium pyrophosphate/sodium chloride buffer (soudium pyrophosphate/HCl, pH 7.5) were mixed with 2 μL of DMSO dissolved melanoxetin, 7,8,3′,4′-tetrahydroxyflavon or okanin in 96-well plate at 37° C. for 5 minutes. 0.3, 0.4, or 0.6 mM substrate dissolved in double distilled water were added to start the reaction. OD 295 nm absorbance was detected every one minute by ELISA reader for total eight minutes at ambient temperature. Excel software was used for analyzing the result of enzyme.

xanthine oxidase [2] = molecular target: T1, xanthine oxidase; assay: Xanthine oxidase inhibition assay (uric acid formation, OD 295 nm); type: biochemical; settings: for EC50: isolated major compounds, read-out: EC50 of inhibitory activity on xanthine oxidase; for xanthine oxidase inhibitory activity as fold of allopurinol: relative to allopurinol EC50
Method: Various parts of Acacia confusa were cold extracted by ethanol for 3 times, 7 days for each time. The extraction solution was vacuum filtered with Whatman #1 filter paper to remove impurities. The filtered extraction solution was concentrated by rotatory vacuum evaporator and lyophilized by a lyophilizer for xanthine oxidase inhibition assay. This assay was detecting xanthine derived uric acid, which was catalyzed by xanthine oxidase, at specific absorbance of UV 295 nm. Therefore, 2 μL of various concentrations of sample were mixed with 798 μL of sodium pyrophosphate buffer (pH 7.5) and 0.1 U of xanthine oxidase for 5 min at 37° C. 200 μL of 0.6 mM xanthine were added and vortex to mix thoroughly, and measured OD 295 nm absorbance by UV/visible light spectrophotometer. Finally, xanthine oxidase inhibitory rate of extracts (%) was calculated.

T1 sequence (P47989 whole entry, species assumed): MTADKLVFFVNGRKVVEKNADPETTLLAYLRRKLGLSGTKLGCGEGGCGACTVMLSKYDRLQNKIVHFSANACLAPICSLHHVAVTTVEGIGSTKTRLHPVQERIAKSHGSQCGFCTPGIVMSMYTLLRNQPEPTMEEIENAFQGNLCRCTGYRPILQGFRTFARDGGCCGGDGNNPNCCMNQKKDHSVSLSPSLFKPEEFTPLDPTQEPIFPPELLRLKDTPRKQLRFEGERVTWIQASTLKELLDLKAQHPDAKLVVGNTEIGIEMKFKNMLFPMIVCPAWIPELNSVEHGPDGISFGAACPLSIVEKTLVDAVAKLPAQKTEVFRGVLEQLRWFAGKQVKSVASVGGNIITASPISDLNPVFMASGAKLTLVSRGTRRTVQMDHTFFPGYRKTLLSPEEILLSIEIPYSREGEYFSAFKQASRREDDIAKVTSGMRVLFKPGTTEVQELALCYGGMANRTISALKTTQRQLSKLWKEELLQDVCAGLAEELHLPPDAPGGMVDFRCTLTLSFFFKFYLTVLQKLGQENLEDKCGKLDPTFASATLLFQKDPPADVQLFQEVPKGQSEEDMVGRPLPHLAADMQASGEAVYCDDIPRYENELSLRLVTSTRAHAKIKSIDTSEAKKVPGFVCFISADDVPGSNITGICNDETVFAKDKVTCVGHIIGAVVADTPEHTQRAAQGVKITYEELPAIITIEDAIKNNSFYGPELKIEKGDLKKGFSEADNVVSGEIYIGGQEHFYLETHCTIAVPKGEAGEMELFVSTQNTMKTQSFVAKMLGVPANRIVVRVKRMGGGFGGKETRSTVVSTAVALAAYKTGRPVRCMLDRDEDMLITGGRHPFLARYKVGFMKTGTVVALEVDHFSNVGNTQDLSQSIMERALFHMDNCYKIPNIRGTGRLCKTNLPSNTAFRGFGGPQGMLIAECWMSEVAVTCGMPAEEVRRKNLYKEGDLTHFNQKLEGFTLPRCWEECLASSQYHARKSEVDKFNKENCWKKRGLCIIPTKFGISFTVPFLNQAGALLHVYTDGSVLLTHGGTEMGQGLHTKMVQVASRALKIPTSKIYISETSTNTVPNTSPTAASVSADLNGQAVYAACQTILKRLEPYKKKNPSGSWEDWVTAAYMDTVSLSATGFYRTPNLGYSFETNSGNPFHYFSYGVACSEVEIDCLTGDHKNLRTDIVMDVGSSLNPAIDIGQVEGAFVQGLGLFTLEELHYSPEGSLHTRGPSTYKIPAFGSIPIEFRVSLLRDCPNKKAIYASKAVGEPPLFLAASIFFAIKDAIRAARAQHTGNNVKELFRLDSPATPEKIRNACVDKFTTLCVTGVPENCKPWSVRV

inhibition mode on xanthine oxidase (Lineweaver-Burk plot) (xanthine oxidase [1])	EC50 (xanthine oxidase [2]) [nM]	xanthine oxidase inhibitory activity as fold of allopurinol (xanthine oxidase [2]) [fold]	SMILES	inhibition at 5 µg/mL (xanthine oxidase [2]; at concentration of 5 μg/mL) [%]
competitive inhibition mode	–	–	O=c1cc(-c2ccc(O)c(O)c2)oc2c(O)c(O)ccc12 [7,8,3′,4′-tetrahydroxyflavon]	–
competitive inhibition mode	274	17	O=c1c(O)c(-c2ccc(O)c(O)c2)oc2c(O)c(O)ccc12 [melanoxetin, 3,7,8,3′,4′-pentahydroxyflavone]	–
non-competitive inhibition mode	74	63	O=C(/C=C/c1ccc(O)c(O)c1)c1ccc(O)c(O)c1O [okanin, 3,4,2′,3′,4′-pentahydroxy trans-chalcone]	–

SMILES	inhibition mode on xanthine oxidase (Lineweaver-Burk plot) (xanthine oxidase [1])	EC50 (xanthine oxidase [2]) [nM]	xanthine oxidase inhibitory activity as fold of allopurinol (xanthine oxidase [2]) [fold]	inhibition at 5 µg/mL (xanthine oxidase [2]; at concentration of 5 μg/mL) [%]
Oc1ncnc2[nH]ncc12 [allopurinol, reference compound]	competitive inhibition mode	–	–	78

Reference: US20100310688A1, “ACACIA EXTRACTS AND THEIR COMPOUNDS ON INHIBITION OF XANTHINE OXIDASE” (NATIONAL TAIWAN UNIVERSITY, priority 2009, published 2010)
